Reference: patent US20210008175A1, “BACTERIOPHAGE LYSIN AND ANTIBIOTIC COMBINATIONS AGAINST GRAM POSITIVE BACTERIA” (priority 2012, published 2021)
Converted amounts (≈) assume the structure as drawn. Where two headings read alike, the source gives them in different places. One block for each molecule: values may come before it.

What was measured:
Staphylococcus aureus = test: MIC, broth microdilution (CLSI M07-A9); format: cell-based; conditions: for MIC90: with reducing agent
[1] = tested on: MRSA strain ATCC 700699 and MSSA strain ATCC 25923; test: microbe, parasite or virus in culture; format: cell-based, Staphylococcus aureus; conditions: Staphylococcus aureus
S. aureus [2] = test: Murine bacteremia model, survival; format: in vivo, BALB/c mice
[3] = tested on: MRSA Staphylococcus aureus strain (MW2); test: microbe, parasite or virus in culture; format: cell-based; conditions: for MIC: Staphylococcus aureus, MRSA
[4] = tested on: MRSA strain MW2 and MSSA strain ATCC 29213; test: MIC in the presence of surfactant (Survanta), broth microdilution; format: cell-based, Staphylococcus aureus
[5] = tested on: Staphylococcus aureus (MRSA and MSSA strains); test: Time kill assay, single agents at 1×MIC (CLSI); format: cell-based; conditions: 1×MIC; 20 MSSA and 42 MRSA strains
MRSA S. aureus strains = test: Dual agent MIC assay (PlySs2 and daptomycin together, broth microdilution); format: cell-based; conditions: for MIC combo: PlySs2 and daptomycin combined; for MIC: Staphylococcus aureus, MRSA
S. aureus [6] = test: Cell envelope binding of BODIPY-fluorescein-labeled antibiotics; format: cell-based
Method: As a complement to the synergy studies, daptomycin and vancomycin cell envelope-binding was examined using BODIPY-fluorescein-labeled antibiotics in the presence and absence of sub-MIC levels of CF-301. […] Similarly, cell wall-labeling with vancomycin occurs within 5 minutes in the presence of CF-301 (⅛^th MIC) versus 30 minutes without CF-301 (FIG. 20B). For both antibiotics, the labeling was first observed at bacterial division planes.

MRSA strain 269 (MW2) = test: Combination MIC study in the presence of 15% surfactant (Survanta); format: cell-based, Staphylococcus aureus; conditions: PlySs2 plus daptomycin
[7] = high challenge (10^9 CFU MRSA MW2), dosing at 2 hours, daptomycin 50 mg/kg once daily, PlySs2 5.25 mg/kg (FIG. 27B)

SMILES: CCCCCCCCCC(=O)N[C@@H](Cc1c[nH]c2ccccc12)C(=O)N[C@H](CC(N)=O)C(=O)N[C@@H](CC(=O)O)C(=O)N[C@@H]1C(=O)NCC(=O)N[C@@H](CCCN)C(=O)N[C@@H](CC(=O)O)C(=O)N[C@H](C)C(=O)N[C@@H](CC(=O)O)C(=O)NCC(=O)N[C@H](CO)C(=O)N[C@@H]([C@H](C)CC(=O)O)C(=O)N[C@@H](CC(=O)c2ccccc2N)C(=O)O[C@@H]1C [Daptomycin]
MIC90 (Staphylococcus aureus; DRSA (n = 8)): 16
MIC90 (Staphylococcus aureus; LRSA (n = 5)): 1
MIC90 (Staphylococcus aureus; MRSA (n = 45)): 1
MIC90 (Staphylococcus aureus; MSSA (n-28)): 1
MIC90 (Staphylococcus aureus; Staphylococcus aureus, DRSA (n = 8), read-out: MIC90): 9.9 µM (≈ 16 µg/mL)
MIC90 (Staphylococcus aureus; Staphylococcus aureus, LRSA (n = 5), read-out: MIC90): 0.6 µM (≈ 0.972 µg/mL)
MIC90 (Staphylococcus aureus; Staphylococcus aureus, MRSA, MRSA (n = 45), read-out: MIC90): 0.6 µM (≈ 0.972 µg/mL)
MIC90 (Staphylococcus aureus; Staphylococcus aureus, MSSA, MSSA (n-28), read-out: MIC90): 0.6 µM (≈ 0.972 µg/mL)
MIC90 (Staphylococcus aureus; Staphylococcus aureus, VISA, VISA (n = 10), read-out: MIC90): 4.9 µM (≈ 7.94 µg/mL)
MIC90 (Staphylococcus aureus; Staphylococcus aureus, VRSA, VRSA (n = 14), read-out: MIC90): 0.6 µM (≈ 0.972 µg/mL)
MIC90 (Staphylococcus aureus; VISA (n = 10)): 8
MIC90 (Staphylococcus aureus; VRSA (n = 14)): 1
MIC ([1]; 504 h, read-out: MIC in daptomycin resistant clones): 18 µg/mL (≈ 11.1 µM)
MIC ([1]; read-out: MIC before daptomycin resistance selection): 1 µg/mL (≈ 0.617 µM)
24 hour survival rate (S. aureus [2]; [7]): 47%
72 hour survival rate (S. aureus [2]; [7]): 31%
survival at 72 hours (S. aureus [2]; low challenge model (up to 7×10^6 CFU MRSA MW2), single dose at 4 hours, PlySs2 1.25 mg/kg, daptomycin 2 mg/kg): 23%
MIC ([3]; read-out: daptomycin MIC, ending values, passaged with PlySs2 (4 ug/ml) plus daptomycin, 30-day study): 4 µg/mL
MIC ([3]; read-out: daptomycin MIC, ending values, three daptomycin-only cultures, 30-day study): 128 µg/mL (≈ 79 µM)
antibiotic MIC, starting value ([3]; before serial passage): 1 µg/mL
increase of daptomycin MIC ([3]; daptomycin-only cultures, 30-day study): 64 to 128 fold
increase of daptomycin MIC ([3]; passaged with PlySs2 (4 ug/ml) plus daptomycin): 4 fold
daptomycin MIC, ending values ([3]; three daptomycin-only cultures, 30-day study): 64 µg/mL
inhibition of MIC by surfactant ([4]; Survanta, up to 15%): up to 256 fold
inhibition of MIC by surfactant ([4]; surfactant concentration of 1.25%): more than 20 fold
time to reach bactericidal levels (≥3-log10 reduction in CFUs) [5]: 6 hours
Fold reduction (MRSA S. aureus strains; MRSA strain 223): 128
MIC combo (MRSA S. aureus strains; MRSA strain 223): 0.0075 µg/mL
Fold reduction (MRSA S. aureus strains; MRSA strain 241): 256
MIC combo (MRSA S. aureus strains; MRSA strain 241): 0.0037 µg/mL
Fold reduction (MRSA S. aureus strains; MRSA strain 263): 128
MIC combo (MRSA S. aureus strains; MRSA strain 263): 0.0075 µg/mL
Fold reduction (MRSA S. aureus strains; MRSA strain 269 (MW2)): 64
MIC combo (MRSA S. aureus strains; MRSA strain 269 (MW2)): 0.015 µg/mL
Fold reduction (MRSA S. aureus strains; MRSA strain 270): 64
MIC combo (MRSA S. aureus strains; MRSA strain 270): 0.015 µg/mL
Fold reduction (MRSA S. aureus strains; MRSA strain 553): 128
MIC combo (MRSA S. aureus strains; MRSA strain 553): 0.0075 µg/mL
Fold reduction (MRSA S. aureus strains; MRSA strain 650): 64
MIC combo (MRSA S. aureus strains; MRSA strain 650): 0.015 µg/mL
Fold reduction (MRSA S. aureus strains; MRSA strain 827): 128
MIC combo (MRSA S. aureus strains; MRSA strain 827): 0.0075 µg/mL
Fold reduction (MRSA S. aureus strains; MRSA strain 828): 128
MIC combo (MRSA S. aureus strains; MRSA strain 828): 0.0075 µg/mL
Fold reduction (MRSA S. aureus strains; MRSA strain 829): 128
MIC combo (MRSA S. aureus strains; MRSA strain 829): 0.0075 µg/mL
Fold reduction (MRSA S. aureus strains; MRSA strain 830): 64
MIC combo (MRSA S. aureus strains; MRSA strain 830): 0.015 µg/mL
Fold reduction (MRSA S. aureus strains; MRSA strain 833): 128
MIC combo (MRSA S. aureus strains; MRSA strain 833): 0.0075 µg/mL
fold reduction in the effective MIC (MRSA S. aureus strains; PlySs2 and daptomycin together, a dozen MRSA strains): 16-256 fold
MIC (MRSA S. aureus strains; MRSA strain 223, single-agent, read-out: MIC alone): 1 µg/mL (≈ 0.617 µM)
MIC (MRSA S. aureus strains; MRSA strain 241, single-agent, read-out: MIC alone): 1 µg/mL (≈ 0.617 µM)
MIC (MRSA S. aureus strains; MRSA strain 263, single-agent, read-out: MIC alone): 1 µg/mL (≈ 0.617 µM)
MIC (MRSA S. aureus strains; MRSA strain 269 (MW2), single-agent, read-out: MIC alone): 1 µg/mL (≈ 0.617 µM)
MIC (MRSA S. aureus strains; MRSA strain 270, single-agent, read-out: MIC alone): 1 µg/mL (≈ 0.617 µM)
MIC (MRSA S. aureus strains; MRSA strain 553, single-agent, read-out: MIC alone): 1 µg/mL (≈ 0.617 µM)
MIC (MRSA S. aureus strains; MRSA strain 650, single-agent, read-out: MIC alone): 1 µg/mL (≈ 0.617 µM)
MIC (MRSA S. aureus strains; MRSA strain 827, single-agent, read-out: MIC alone): 1 µg/mL (≈ 0.617 µM)
MIC (MRSA S. aureus strains; MRSA strain 828, single-agent, read-out: MIC alone): 1 µg/mL (≈ 0.617 µM)
MIC (MRSA S. aureus strains; MRSA strain 829, single-agent, read-out: MIC alone): 1 µg/mL (≈ 0.617 µM)
MIC (MRSA S. aureus strains; MRSA strain 830, single-agent, read-out: MIC alone): 1 µg/mL (≈ 0.617 µM)
MIC (MRSA S. aureus strains; MRSA strain 833, single-agent, read-out: MIC alone): 1 µg/mL (≈ 0.617 µM)
MIC (MRSA S. aureus strains; daptomycin as single agent, read-out: MIC): 1 µg/mL (≈ 0.617 µM)
MIC (MRSA S. aureus strains; daptomycin with 0.25× MIC PlySs2, read-out: MIC): 0.0075 µg/mL (≈ 0.00463 µM)
decrease of MIC (MRSA S. aureus strains; daptomycin with 0.25× MIC PlySs2): 128 fold
degree of potency enhancement (MRSA S. aureus strains; daptomycin with PlySs2, across 12 MRSA strains): 64 to 256 fold
time to antibiotic penetration (BODIPY-labeled daptomycin binding) (S. aureus [6]; in the presence of CF-301 at 1/32nd MIC): 15 min
time to antibiotic penetration (BODIPY-labeled daptomycin binding) (S. aureus [6]; without CF-301): 180 min
effective concentration in combination as fraction of MIC (MRSA strain 269 (MW2)): 1/1024
most dilute concentration in combination that still inhibits growth (MRSA strain 269 (MW2)): 0.25 µg/mL

MIC50/90 (Staphylococcus aureus; DRSA (n = 8)): 2
MIC50/90 [uM] (Staphylococcus aureus; DRSA (n = 8)): 5.7 µM (≈ 1.92 µg/mL)
MIC50/90 (Staphylococcus aureus; LRSA (n = 5)): >64
MIC50/90 [uM] (Staphylococcus aureus; LRSA (n = 5)): >183 µM
MIC50/90 (Staphylococcus aureus; MRSA (n = 45)): 2
MIC50/90 [uM] (Staphylococcus aureus; MRSA (n = 45)): 5.7 µM (≈ 1.92 µg/mL)
MIC50/90 (Staphylococcus aureus; MSSA (n-28)): 2
MIC50/90 [uM] (Staphylococcus aureus; MSSA (n-28)): 5.7 µM (≈ 1.92 µg/mL)
MIC50/90 (Staphylococcus aureus; VISA (n = 10)): 2
MIC50/90 [uM] (Staphylococcus aureus; VISA (n = 10)): 5.7 µM (≈ 1.92 µg/mL)
MIC50/90 (Staphylococcus aureus; VRSA (n = 14)): 2
MIC50/90 [uM] (Staphylococcus aureus; VRSA (n = 14)): 5.7 µM (≈ 1.92 µg/mL)
SMILES: CC(=O)NC[C@H]1CN(c2ccc(N3CCOCC3)c(F)c2)C(=O)O1 [Linezolid]
